Test results from DBAASP.
In brackets after ≈: the same amount, converted by molar mass. Each block holds one molecule with its values, some of them ahead of it.

Assays:
Assay in all cases: ≥ marks a high value that may be exact or a test limit, other limits are often not marked, values filed in µg/mL are converted to µM
[1] = test system: Acinetobacter sp. M13523
[2] = test system: Acinetobacter sp. M5949
[3] = test system: Acinetobacter sp. M9013
[4] = test system: Acinetobacter sp. M9665
[5] = test system: Enterococcus faecalis ATCC 29212
[6] = test system: Enterococcus faecalis ATCC 51299
[7] = test system: Enterococcus faecalis M4899
[8] = test system: Enterococcus faecalis M6983
[9] = test system: Enterococcus faecium M2304
[10] = test system: Enterococcus faecium PZAP 95
[11] = test system: Enterococcus gallinarum M2723
[12] = test system: Escherichia coli ATCC 25922
[13] = test system: Escherichia coli M5306
[14] = test system: Escherichia coli M7859
[15] = test system: Escherichia coli M9209
[16] = test system: Escherichia coli M9884
[17] = test system: Klebsiella pneumoniae M11245
[18] = test system: Klebsiella pneumoniae M5825
[19] = test system: Klebsiella pneumoniae M9375
[20] = test system: Klebsiella pneumoniae M9491
[21] = test system: Klebsiella pneumoniae PFAV 3
[22] = test system: Pseudomonas aeruginosa ATCC 27853
[23] = test system: Pseudomonas aeruginosa M11005
[24] = test system: Pseudomonas aeruginosa PACO12
[25] = test system: Staphylococcus aureus ATCC 25923
[26] = test system: Staphylococcus aureus M6784
[27] = test system: Staphylococcus aureus P33
[28] = test system: Staphylococcus cohnii
[29] = test system: Staphylococcus epidermidis M2921
[30] = test system: Staphylococcus epidermidis M2923
[31] = test system: Staphylococcus haemolyticus M2976
[32] = test system: Staphylococcus hominis M2967
[33] = test system: Staphylococcus hominis M2973
[34] = test system: Staphylococcus saprophyticus M4070
[35] = test system: Staphylococcus warneri
[36] = test system: Candida albicans ATCC 2002
[37] = test system: Candida glabrata 0902
[38] = test system: Cutibacterium acnes ATCC 11827
[39] = test system: Escherichia coli 1334
[40] = test system: Escherichia coli 1342
[41] = test system: Pseudomonas aeruginosa 1411
[42] = test system: Pseudomonas aeruginosa 1412
[43] = test system: Pseudomonas aeruginosa 1413
[44] = test system: Staphylococcus aureus 1303
[45] = test system: Staphylococcus aureus 1349
[46] = test system: Staphylococcus aureus ATCC 2592
[47] = test system: Staphylococcus aureus
[48] = test system: Staphylococcus epidermidis
[49] = test system: Aeromonas hydrophila CGMCC 1.0927
[50] = test system: Corynebacterium glutamicum CGMCC 1.1886
[51] = test system: Staphylococcus aureus CGMCC 1.0363
[52] = test system: Vibrio alginolyticus CGMCC 1.1833
[53] = test system: Vibrio parahaemolyticus CGMCC 1.1615
[54] = test system: Candida albicans ATCC 37092
[55] = test system: Staphylococcus aureus ATCC 29213

MIC [1]: 27.2 µM (≈ 64 µg/mL)
MIC [2]: ≥ 109 µM
MIC [3]: 13.6 µM (≈ 32 µg/mL)
MIC [4]: ≥ 54.3 µM
MIC [5]: 54.3 µM (≈ 128 µg/mL)
MIC [6]: ≥ 109 µM
MIC [7]: ≥ 109 µM
MIC [8]: ≥ 54.3 µM
MIC [9]: 3.39 µM (≈ 8 µg/mL)
MIC [10]: 6.79 µM (≈ 16 µg/mL)
MIC [11]: 6.79 µM (≈ 16 µg/mL)
MIC [12]: 13.6 µM (≈ 32 µg/mL)
MIC [13]: 27.2 µM (≈ 64 µg/mL)
MIC [14]: 6.79 µM (≈ 16 µg/mL)
MIC [15]: ≥ 54.3 µM
MIC [16]: 13.6 µM (≈ 32 µg/mL)
MIC [17]: 3.39 µM (≈ 8 µg/mL)
MIC [18]: 13.6 µM (≈ 32 µg/mL)
MIC [19]: 6.79 µM (≈ 16 µg/mL)
MIC [20]: 27.2 µM (≈ 64 µg/mL)
MIC [21]: ≥ 54.3 µM
MIC [22]: 27.2 µM (≈ 64 µg/mL)
MIC [23]: ≥ 54.3 µM
MIC [24]: 27.2 µM (≈ 64 µg/mL)
MIC [25]: 13.6 µM (≈ 32 µg/mL)
MIC [26]: 13.6 µM (≈ 32 µg/mL)
MIC [27]: 27.2 µM (≈ 64 µg/mL)
MIC [28]: 3.39 µM (≈ 8 µg/mL)
MIC [29]: 3.39 µM (≈ 8 µg/mL)
MIC [30]: 6.79 µM (≈ 16 µg/mL)
MIC [32]: 3.39 µM (≈ 8 µg/mL)
MIC [33]: 1.7 µM (≈ 4 µg/mL)
MIC [34]: 3.39 µM (≈ 8 µg/mL)
MIC [35]: 3.39 µM (≈ 8 µg/mL)
Structure (SMILES): CC[C@H](C)[C@H](NC(=O)[C@H](CCCN=C(N)N)NC(=O)[C@H](CCC(N)=O)NC(=O)[C@@H](NC(=O)[C@@H](NC(=O)[C@@H](N)CCCN=C(N)N)[C@@H](C)CC)C(C)C)C(=O)N[C@@H](CCCCN)C(=O)N[C@@H](CCCCN)C(=O)N[C@@H](Cc1c[nH]c2ccccc12)C(=O)N[C@@H](CC(C)C)C(=O)N[C@@H](CC(C)C)C(=O)N[C@@H](CCCCN)C(=O)N[C@@H](Cc1c[nH]c2ccccc12)C(=O)N[C@@H](CCCCN)C(=O)N[C@@H](CCCCN)C(=O)N[C@@H](CC(C)C)C(=O)NCC(=O)N[C@@H](Cc1ccc(O)cc1)C(N)=O [RIVQRIKKWLLKWKKLGY]
MIC [31]: 3.39 µM (≈ 8 µg/mL)

MIC [36]: 1.13 µM (≈ 3.54 µg/mL)
MIC [37]: 4.54 µM (≈ 14.2 µg/mL)
MIC [38]: 18.2 µM (≈ 57 µg/mL)
MIC [39]: 4.54 µM (≈ 14.2 µg/mL)
MIC [40]: 9.08 µM (≈ 28.5 µg/mL)
MIC [12]: 2.27 µM (≈ 7.11 µg/mL)
MIC [41]: 4.54 µM (≈ 14.2 µg/mL)
MIC [42]: 9.08 µM (≈ 28.5 µg/mL)
MIC [43]: 4.54 µM (≈ 14.2 µg/mL)
MIC [22]: 4.54 µM (≈ 14.2 µg/mL)
MIC [44]: 4.54 µM (≈ 14.2 µg/mL)
MIC [45]: 9.08 µM (≈ 28.5 µg/mL)
MIC [46]: 2.27 µM (≈ 7.11 µg/mL)
MIC [47]: 2.27 µM (≈ 7.11 µg/mL)
MIC [48]: 4.54 µM (≈ 14.2 µg/mL)
Structure (SMILES): CC[C@H](C)[C@H](NC(=O)[C@H](Cc1cnc[nH]1)NC(=O)[C@H](CO)NC(=O)CNC(=O)[C@H](CO)NC(=O)CNC(=O)[C@@H](NC(=O)[C@H](CO)NC(=O)[C@H](CCCN=C(N)N)NC(=O)[C@H](CC(C)C)NC(=O)[C@H](CCCCN)NC(=O)[C@H](CCC(N)=O)NC(=O)[C@H](CCCCN)NC(=O)[C@H](CC(C)C)NC(=O)[C@H](CCC(N)=O)NC(=O)[C@@H]1CSSC[C@H](NC(=O)[C@H](CCCCN)NC(=O)CN)C(=O)N[C@@H](CC(N)=O)C(=O)N[C@@H](C(C)C)C(=O)N[C@@H](CC(C)C)C(=O)N1)[C@@H](C)CC)C(=O)NCC(=O)N[C@@H](CO)C(=O)N[C@H](C(=O)N[C@H](C(=O)N[C@@H](CC(C)C)C(=O)N1CCC[C@H]1C(=O)N[C@@H](CCCN=C(N)N)C(=O)NCC(=O)O)C(C)C)C(C)C [GKCNVLCQLKQKLRSIGSGSHIGSVVLPRG]

MIC [49]: 12 µM (≈ 35 µg/mL)
MIC [50]: 12 µM (≈ 35 µg/mL)
MIC [12]: 24 µM (≈ 70 µg/mL)
MIC [51]: 12 µM (≈ 35 µg/mL)
MIC [52]: ≥ 48 µM
Structure (SMILES): CSCC[C@H](NC(=O)[C@H](CO)NC(=O)[C@H](CC(C)C)NC(=O)[C@H](Cc1cnc[nH]1)NC(=O)[C@H](CO)NC(=O)[C@@H](N)CCC(N)=O)C(=O)N[C@H]1CSSC[C@@H](C(=O)N[C@@H](CCCN=C(N)N)C(=O)N[C@@H](Cc2ccccc2)C(=O)O)NC(=O)[C@@H]2CSSC[C@@H]3NC(=O)[C@@H]4CSSC[C@H](NC(=O)[C@H](C(C)C)NC(=O)[C@H](CO)NC1=O)C(=O)N[C@@H](CSSC[C@H](NC(=O)CNC(=O)[C@H](CCCCN)NC(=O)[C@H](Cc1ccc(O)cc1)NC(=O)[C@H](CC(N)=O)NC(=O)[C@H](CCCCN)NC3=O)C(=O)NCC(=O)N[C@@H](Cc1ccccc1)C(=O)N2)C(=O)N[C@@H](CC(N)=O)C(=O)N4 [QSHLSMCSVCCNCCKNYKGCGFCCRF]
MIC [53]: ≥ 48 µM

MIC [54]: ≥ 500 µM
MIC [12]: > 500 µM
MIC [55]: > 500 µM
Structure (SMILES): CC[C@H](C)[C@H](NC(=O)[C@H](CCCN=C(N)N)NC(=O)[C@@H](N)CCCN=C(N)N)C(=O)N[C@@H](CCCN=C(N)N)C(=O)N1CCC[C@H]1C(=O)N[C@@H](CCCN=C(N)N)C(=O)N1CCC[C@H]1C(=O)O [RRIRPRP]
